Experimental data: PMC5958115, “A novel small molecule chaperone of rod opsin and its potential therapy for retinal degeneration” (Nature Communications, 2018)

Columns and labels:
C57BL/6 mice = assay: Retinoid cycle analysis: 11-cis-retinyl-oxime recovery after bleaching; format: in vivo, mouse; details: 200 mg kg^−1 bw i.p. 30 min before 10,000 lux 10 min; vs DMSO
Description: To test if treatment with YC-001 affects visual pigment regeneration, we quantified the 11-cis-retinyl-oxime extracted from retinas of C57BL/6 mice after different periods of dark adaptation following exposure to bright light. Mice at 6 weeks of age were administered YC-001 at 200 mg kg^−1 bw via i.p. injection. At 30 min following YC-001 administration, eyes were dilated with 1% tropicamide. Mice then were anesthetized with a cocktail containing 20 mg mL^−1 of ketamine and 1.75 mg mL^−1 of xylazine at a dose of 4 μL g^−1 bw. Anesthetized mice were exposed to bright light with an intensity of 10,000 lux for 10 min to bleach about 90% of the rhodopsin pigment. Mice then were returned to the dark for recovery. Animals then were euthanized at 0, 2, 4, 6 or 24 h after bleaching and recovery in the dark, and their eyes were removed and homogenized in 1 mL of 1:1 PBS:ethanol mixture (v/v) containing 40 mM hydroxylamine. […] 11-cis-Retinyl-oxime released from the regenerated rhodopsin pigments were separated on an Agilent Sil column (5 µm, 4.6 × 250 mm) with an isocratic flow of 10% ethyl acetate in hexanes (1.5 mL min^−1) and detected at 325 nm. Amounts of 11-cis-retinyl-oximes per eye were quantified by normalizing the peak area to an 11-cis-retinyl-oxime standard. 11-cis-Retinyl-oximes were quantified in three eye samples per condition, and the means and s.d.s were calculated.

[1] = Metabolic stability in mouse liver microsomes; format: in vitro ADME; details: 5 µM, NADPH, 37 °C
Description: A standard metabolic stability assay was performed in the presence of mouse or human liver microsomes. YC-001 (5 µM) was incubated with the microsomes (0.125 mg mL^−1) resuspended in 0.2 mL of PBS buffer, pH 7.4 composed of 10 mM Na2HPO4, 1.8 mM KH2PO4, 137 mM NaCl, and 2.7 mM KCl. The enzymatic reaction to produce oxidized metabolites was initiated by addition of NADPH (1 mM). Samples were incubated at 37 °C for up to 240 min. Incubation without the cofactor was conducted in parallel to assess NADPH-independent clearance. The reactions were stopped with 0.2 mL of methanol followed by 0.3 mL chloroform. Residual YC-001 was extracted by vigorous shaking. To facilitate phase separation, the samples were spun down for 2 min, 15,000×g. The chloroform fraction was collected, dried down, and the extracted organic compounds were redissolved in 0.2 mL of methanol. To quantify YC-001, the samples were injected onto an Eclipse XDB-C18 column (4.6 × 150 mm, 5 µm) (Agilent Technologies) equilibrated with solvent composed of 30% acetonitrile in water (v/v), and 0.1% formic acid. YC-001 was eluted in a gradient of acetonitrile in water (30–100%) developed within 15 min at a flow rate of 1 mL min^−1, detected at 350 nm, and quantified by correlating peak areas with known quantities of an original synthetic standard. […]

Question: Which “recovery of 11-cis-retinyl-oxime after bleaching” value (C57BL/6 mice) does the source give for O=C1OCC(c2ccc(Cl)s2)=C1c1cccs1 [YC-001] here?
Answer: little difference

Question: And the “initial clearance in liver microsomes” value [1]?
Answer: even higher initial clearance compared to the fast clearance drug, verapamil
